Test results: patent US6841567B1, “Cyclic substituted fused pyrrolocarbazoles and isoindolones” (Cephalon, Inc., priority 1999, dated 2005)
Blank lines part the entries; values can stand above or below the compound they belong to.

Key:
[1] = molecular target: T1, baculovirus-expressed human trkA cytoplasmic domain (Homo sapiens, UniProt P04629); assay: Inhibition of trkA tyrosine kinase activity (ELISA-based assay); type: biochemical; conditions: for IC50: 40 μM ATP
T1 construct: baculovirus-expressed human trkA cytoplasmic domain; made in house; host or cells: baculovirus expression system
Experimental: Selected cyclic substituted fused pyrrolocarbazole and isoindolone compounds were tested for their ability to inhibit the kinase activity of baculovirus-expressed human trkA cytoplasmic domain using an ELISA-based assay as previously described (Angeles et al., Anal. Biochem. 236: 49-55, 1996). Briefly, the 96-well microtiter plate was coated with substrate solution (recombinant human phospholipase C-γ1/glutathione S-transferase fusion protein (Rotin et al., EMBO J., 11: 559-567, 1992). Inhibition studies were performed in 100 μl assay mixtures containing 50 mM Hepes, pH 7.4, 40 μM ATP, 10 mM MnCl2, 0.1% BSA, 2% DMSO, and various concentrations of inhibitor. The reaction was initiated by addition of trkA kinase and allowed to proceed for 15 minutes at 37° C. An antibody to phosphotyrosine (UBI) was then added, followed by a secondary enzyme-conjugated antibody, alkaline phosphatase-labelled goat antII-mouse IgG (Bio-Rad). The activity of the bound enzyme was measured via an amplified detection system (Gibco-BRL). Inhibition data were analyzed using the sigimoidal dose-response (variable slope) equation in GraphPad Prism.

[2] = molecular target: T2, VEGF receptor (human flk-1, KDR, VEGFR2) kinase domain (Homo sapiens, UniProt P35968); assay: Inhibition of vascular endothelial growth factor receptor kinase activity (ELISA); type: biochemical; conditions: for IC50: 40 μM ATP; for inhibition at 0.3 µM / VEGF receptor kinase activity % Inh. @ 300 nM (values in parentheses): 300 nM compound; for inhibition at 0.3 µM: read-out: VEGF receptor kinase activity % Inh. @ 300 nM (values in parentheses)
T2 construct: VEGF receptor (human flk-1, KDR, VEGFR2) kinase domain; made in house; host or cells: baculovirus expression system
Experimental: Cyclic substituted fused pyrrolocarbazole and isoindolone compounds were examined for their inhibitory effects on the kinase activity of baculovirus-expressed VEGF receptor (human flk-1, KDR, VEGFR2) kinase domain using the procedure described for the trkA kinase ELISA assay described above. The kinase reaction mixture, consisting of 50 mM Hepes, pH 7.4, 40 μM ATP, 10 mM MnCl2, 0.1% BSA, 2% DMSO, and various concentrations of inhibitor, was transferred to PLC-γ/GST-coated plates. VEGFR kinase was added and the reaction was allowed to proceed for 15 min. at 37 C. Detection of phosphorylated product was accomplished by addition of antII-phosphotyrosine antibody (UBI). A secondary enzymeconjugated antibody was delivered to capture the antibody-phosphorylated PLC-γ/GST complex. The activity of the bound enzyme was measured via an amplified detection system (Gibco-BRL). Inhibition data were analyzed using the sigmoidal dose-response (variable slope) equation in GraphPad Prism.

[3] = molecular target: T3, trkA (NIH3T3 cells transfected with trkA) (Homo sapiens, UniProt P04629); assay: Inhibition of NGF-stimulated trk phosphorylation in a whole cell preparation; type: cell-based; conditions: NGF 10 ng/ml; for Cell Score @ 100 nM (percent decrease in trk protein band): 100 nM compound; for Cell Score @ 1 uM (percent decrease in trk protein band): 1 uM compound
T3 construct: expressed in transfected cells; host or cells: NIH3T3
Experimental: NIH3T3 cells transfected with trkA were grown in 100 mm dishes. Subconfluent cells were serum-starved by replacing media with serum-free 0.05% BSA-DMEM containing compound (100 nM and 1 μM) or DMSO (added to controls) for one hour at 37° C. NGF (Harlan/Bioproducts for Science) was then added to the cells at a concentration of 10 ng/ml for 5 minutes. Cells were lysed in buffer containing detergent and protease inhibitors. Clarified cell lysates were normalized to protein using BCA method and immunoprecipitated with antII-trk antibody. Polyclonal antII-trk antibody was prepared against a peptide corresponding to the 14 amino acids at the carboxy terminus of trk (Martin-Zanca et al., Mol. Cell. Biol. 9: 24-33, 1989). The immune complexes were collected on Protein A Sepharose beads (Sigma Chem. Co., St. Lois, Mo.), separated by SDS polyacrylamide gel electrophoresis (SDS-PAGE), and transferred to a polyvinylidene difluoride (PVDF) membrane. The membrane was immunoblotted with antII-phosphotyrosine antibody (UBI), followed by incubation with horseradish peroxidase coupled goat antII-mouse IgG (Bio-Rad Laboratories, Hercules, Calif.). Phosphorylated proteins were visualized using ECL (Arnersham Life Science, Inc., Arlington Heights, Ill.). The area of the trk protein band was measured and compared to NGF-stimulated control. The inhibition scoring system used, based on percent decrease in trk protein band, was as follows: 0=no decrease; 1=1-25%; 2=26-49%; 3=50-75%; 4=76-100%.

T2 sequence (P35968 834-1162 limits assumed): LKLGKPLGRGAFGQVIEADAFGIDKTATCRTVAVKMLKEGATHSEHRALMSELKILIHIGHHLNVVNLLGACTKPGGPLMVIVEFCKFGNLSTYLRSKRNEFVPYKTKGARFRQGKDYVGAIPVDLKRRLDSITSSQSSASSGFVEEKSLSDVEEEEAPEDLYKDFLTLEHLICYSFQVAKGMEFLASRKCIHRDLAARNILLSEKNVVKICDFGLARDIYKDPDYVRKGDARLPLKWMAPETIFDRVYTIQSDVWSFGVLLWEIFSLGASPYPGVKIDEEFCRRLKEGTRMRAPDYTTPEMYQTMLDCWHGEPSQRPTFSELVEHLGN
T3 sequence (P04629 33-796, species assumed): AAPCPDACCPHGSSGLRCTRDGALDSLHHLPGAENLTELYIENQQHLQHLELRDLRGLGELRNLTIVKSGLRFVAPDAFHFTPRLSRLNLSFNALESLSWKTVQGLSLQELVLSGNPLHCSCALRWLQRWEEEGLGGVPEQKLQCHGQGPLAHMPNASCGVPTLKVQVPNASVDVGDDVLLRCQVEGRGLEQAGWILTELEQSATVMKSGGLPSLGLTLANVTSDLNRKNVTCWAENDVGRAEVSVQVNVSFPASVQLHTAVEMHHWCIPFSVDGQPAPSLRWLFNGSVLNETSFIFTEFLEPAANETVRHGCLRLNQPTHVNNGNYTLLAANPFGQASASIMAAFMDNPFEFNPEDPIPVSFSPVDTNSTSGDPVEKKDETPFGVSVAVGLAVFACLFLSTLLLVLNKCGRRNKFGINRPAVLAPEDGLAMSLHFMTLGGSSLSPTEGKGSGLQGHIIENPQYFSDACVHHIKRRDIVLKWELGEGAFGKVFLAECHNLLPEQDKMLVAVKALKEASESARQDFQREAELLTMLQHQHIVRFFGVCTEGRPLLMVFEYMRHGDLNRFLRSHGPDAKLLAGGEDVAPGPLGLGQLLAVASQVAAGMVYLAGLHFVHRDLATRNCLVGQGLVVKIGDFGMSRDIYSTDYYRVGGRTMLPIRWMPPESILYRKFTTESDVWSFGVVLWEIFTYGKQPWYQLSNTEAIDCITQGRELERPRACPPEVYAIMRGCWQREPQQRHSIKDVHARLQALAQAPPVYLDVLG
T1 sequence (P04629 440-796 limits assumed): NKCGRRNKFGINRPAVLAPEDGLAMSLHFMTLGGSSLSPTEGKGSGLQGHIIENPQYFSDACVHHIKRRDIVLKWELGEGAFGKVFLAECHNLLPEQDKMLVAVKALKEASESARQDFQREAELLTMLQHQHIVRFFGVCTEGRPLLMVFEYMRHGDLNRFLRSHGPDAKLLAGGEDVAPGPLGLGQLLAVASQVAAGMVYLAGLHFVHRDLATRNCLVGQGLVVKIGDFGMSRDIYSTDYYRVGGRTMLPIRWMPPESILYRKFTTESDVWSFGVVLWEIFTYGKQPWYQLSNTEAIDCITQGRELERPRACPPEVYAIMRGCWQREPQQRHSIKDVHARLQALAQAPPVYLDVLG

IC50 [1]: 0.138 µM
SMILES: C=CC1(C2c3ccccc3-c3c4c(c5c([nH]c6ccccc65)c32)CNC4=O)CCCO1 (centres unmarked) [II-28]

SMILES: O=C1NCc2c1c1c(c3[nH]c4ccccc4c23)C(C2OCCC2O)c2ccccc2-1 (mixture of isomers) [II-43]
IC50 [1]: 0.11 µM

IC50 [1]: 0.321 µM
SMILES: O=C1CCC(C2c3ccccc3-c3c4c(c5c([nH]c6ccccc65)c32)CNC4=O)=NN1 (centres unmarked) [II-49]

SMILES: CCOC1COCC(C)(C2c3ccccc3-c3c4c(c5c([nH]c6ccccc65)c32)CNC4=O)O1 (centres unmarked) [II-51a]
inhibition at 0.3 µM ([1]; 300 nM compound, read-out: trkA kinase activity % Inh. @ 300 nM (values in parentheses)): 56%
IC50 [2]: 0.17 µM

SMILES: C=C1COC(C)(C2c3ccccc3-c3c4c(c5c([nH]c6ccccc65)c32)CNC4=O)C1 (mixture of isomers) [II-25]
trkA kinase activity % Inh. @ 300 nM (values in parentheses) ([1]; 300 nM compound): (27) %

SMILES: CC1(C2c3ccccc3-c3c4c(c5c([nH]c6ccccc65)c32)CNC4=O)CCCO1 (single isomer, unassigned) [II-30b]
trkA kinase activity % Inh. @ 300 nM (values in parentheses) ([1]; 300 nM compound): (32) %

SMILES: O=C1NCc2c1c1c(c3[nH]c4ccccc4c23)C(C2(O)CCC2)c2ccccc2-1 (centres unmarked) [II-18]
trkA kinase activity % Inh. @ 300 nM (values in parentheses) ([1]; 300 nM compound): (45) %

IC50 [1]: 0.162 µM
inhibition at 0.3 µM [2]: 46%
SMILES: O=C1NCc2c1c1c(c3[nH]c4ccccc4c23)C(C2(CCCCl)CCCO2)c2ccccc2-1 (centres unmarked) [II-19]

IC50 [1]: 0.095 µM
SMILES: CC(=O)OCC1(C2c3ccccc3-c3c4c(c5c([nH]c6ccccc65)c32)CNC4=O)CCCO1 (centres unmarked) [II-22]

SMILES: CCOC1COCC(C)(C2c3ccccc3-c3c4c(c5c([nH]c6ccccc65)c32)CNC4=O)O1 (mixture of isomers) [II-51bc]
trkA kinase activity % Inh. @ 300 nM (values in parentheses) ([1]; 300 nM compound, 0.3 µM): (56) %
VEGF receptor kinase activity % Inh. @ 300 nM (values in parentheses) ([2]; 0.3 µM): (62) %

SMILES: CCOC1COCC(C)(C2c3ccccc3-c3c4c(c5c([nH]c6ccccc65)c32)CNC4=O)O1 (single isomer, unassigned) [II-51d]
trkA kinase activity % Inh. @ 300 nM (values in parentheses) ([1]; 300 nM compound, 0.3 µM): (58) %
VEGF receptor kinase activity % Inh. @ 300 nM (values in parentheses) ([2]; 0.3 µM): (48) %

IC50 [1]: 0.092 µM
SMILES: O=C1NCc2c1c1c(c3c2c2ccccc2n3CC2CO2)Cc2ccccc2-1 (racemic) [II-01a]

IC50 [1]: 0.186 µM
SMILES: O=C1NCc2c1c1c(c3[nH]c4ccccc4c23)C(C2CCCCO2)c2ccccc2-1 (centres unmarked) [II-13]

IC50 [1]: 0.134 µM
SMILES: O=C1NCc2c1c1c(c3[nH]c4ccccc4c23)C(C2(c3cccs3)CCCO2)c2ccccc2-1 (centres unmarked) [II-09]

IC50 [2]: 0.38 µM
SMILES: O=C1NCc2c1c1c(c3c2c2cc(Br)ccc2n3CC2CO2)Cc2ccccc2-1 (racemic) [II-57]

IC50 [1]: 0.054 µM
SMILES: CCOC1CCC(C2c3ccccc3-c3c4c(c5c([nH]c6ccccc65)c32)CNC4=O)O1 (centres unmarked) [II-40a]

SMILES: COCCOCOCC1(C2c3ccccc3-c3c4c(c5c([nH]c6ccccc65)c32)CNC4=O)CCC(=O)O1 (mixture of isomers) [II-31]
IC50 [1]: 0.173 µM

SMILES: O=C1NCc2c1c1c(c3[nH]c4ccccc4c23)C(C2CCCC2)c2ccccc2-1 (single isomer, unassigned) [II-59]
trkA kinase activity % Inh. @ 300 nM (values in parentheses) ([1]; 300 nM compound): (10) %

SMILES: O=C1NCc2c1c1c(c3[nH]c4ccccc4c23)C(C2CCOC2=O)c2ccccc2-1 (single isomer, unassigned) [II-60]
VEGF receptor kinase activity % Inh. @ 300 nM (values in parentheses) [2]: (45) %

SMILES: CC1(C)OC2CC(O)(C3c4ccccc4-c4c5c(c6c([nH]c7ccccc76)c43)CNC5=O)OC2O1 (mixture of isomers) [II-48]
trkA kinase activity % Inh. @ 300 nM (values in parentheses) ([1]; 300 nM compound): (46) %

SMILES: CCOC(=O)C1C(=O)CCC1C1c2ccccc2-c2c3c(c4c([nH]c5ccccc54)c21)C(=O)NC3=O (single isomer, unassigned) [II-56]
trkA kinase activity % Inh. @ 300 nM (values in parentheses) ([1]; 300 nM compound): (12) %

IC50 [2]: 0.266 µM
SMILES: O=C1NCc2c1c1c(c3c2c2ccccc2n3C[C@@H]2CO2)Cc2ccccc2-1 [II-01b]

SMILES: CCN1CCCC(O)(C2c3ccccc3-c3c4c(c5c([nH]c6ccccc65)c32)CNC4=O)C1 (mixture of isomers) [II-16]
trkA kinase activity % Inh. @ 300 nM (values in parentheses) ([1]; 300 nM compound): (38) %

SMILES: CCOC1CCC(CO)(C2c3cc(OC)ccc3-c3c4c(c5c([nH]c6ccccc65)c32)CNC4=O)O1 (single isomer, unassigned) [II-54]
IC50 [1]: 0.059 µM
Cell Score @ 100 nM (percent decrease in trk protein band) [3]: 2 (2=26-49%)
Cell Score @ 1 uM (percent decrease in trk protein band) [3]: 4 (4=76-100%)
IC50 [2]: 0.122 µM

IC50 [1]: 0.191 µM
SMILES: CC1(C2c3ccccc3-c3c4c(c5c([nH]c6ccccc65)c32)C(=O)NC4)CCCO1 (centres unmarked) [II-37]

IC50 [1]: 0.241 µM
SMILES: CC1(C2c3ccccc3-c3c4c(c5c([nH]c6ccccc65)c32)CNC4=O)CCCCO1 (centres unmarked) [II-12]

SMILES: CCOCc1ccc2c(c1)c1c3c(c4c(c1n2CC1CO1)Cc1ccccc1-4)C(=O)NC3 (racemic) [II-58]
trkA kinase activity % Inh. @ 300 nM (values in parentheses) ([1]; 300 nM compound): (23) %

IC50 [1]: 0.113 µM
SMILES: O=C1NCc2c1c1c(c3[nH]c4ccccc4c23)C(C2(O)CCCCC2)c2ccccc2-1 (centres unmarked) [II-50]

SMILES: CCC1(C2(CO)CCCO2)c2ccccc2-c2c3c(c4c([nH]c5ccccc54)c21)CNC3=O (mixture of isomers) [II-34]
trkA kinase activity % Inh. @ 300 nM (values in parentheses) ([1]; 300 nM compound): (38) %
VEGF receptor kinase activity % Inh. @ 300 nM (values in parentheses) [2]: (52) %

IC50 [1]: 0.166 µM
SMILES: CC1(C2c3ccccc3-c3c4c(c5c([nH]c6ccccc65)c32)CNC4=O)CC(=O)CO1 (centres unmarked) [II-27]

IC50 [1]: 0.08 µM
IC50 [2]: > 1 µM
SMILES: O=C1NCc2c1c1c(c3[nH]c4ccccc4c23)C(C2(CCl)CCCO2)c2ccccc2-1 (centres unmarked) [II-44]

IC50 [1]: 0.059 µM
IC50 [2]: 1.42 µM
SMILES: CCOC1CCC(C2c3ccccc3-c3c4c(c5c([nH]c6ccccc65)c32)CNC4=O)O1 (centres unmarked) [II-40b]

IC50 [1]: 0.09 µM
Cell Score @ 100 nM (percent decrease in trk protein band) [3]: 1 (1=1-25%)
Cell Score @ 1 uM (percent decrease in trk protein band) [3]: 2 (2=26-49%)
inhibition at 0.3 µM [2]: 56%
SMILES: O=C1CCC(C2c3ccccc3-c3c4c(c5c([nH]c6ccccc65)c32)CNC4=O)O1 (centres unmarked) [II-06]

SMILES: CC1(C2c3ccccc3-c3c4c(c5c([nH]c6ccccc65)c32)CNC4=O)CCCO1 (single isomer, unassigned) [II-30a]
IC50 [1]: 0.214 µM
inhibition at 0.3 µM [2]: 59%

IC50 [1]: 0.163 µM
IC50 [2]: 0.168 µM
SMILES: O=C1NCc2c1c1c(c3c2c2ccccc2n3C[C@H]2CO2)Cc2ccccc2-1 [II-01c]

IC50 [1]: 0.13 µM
SMILES: O=C1CCCC(C2c3ccccc3-c3c4c(c5c([nH]c6ccccc65)c32)CNC4=O)O1 (centres unmarked) [II-05]

IC50 [1]: 0.139 µM
SMILES: O=C1NCc2c1c1c(c3[nH]c4ccccc4c23)C(C2CSCC2O)c2ccccc2-1 (centres unmarked) [II-11]

SMILES: CC(=O)N1CCC(O)(C2c3ccccc3-c3c4c(c5c([nH]c6ccccc65)c32)CNC4=O)CC1 (centres unmarked) [II-24]
trkA kinase activity % Inh. @ 300 nM (values in parentheses) ([1]; 300 nM compound): (34) %
